Measured values from patent publication US5491072A, “N-alkylacridan carboxyl derivatives useful for chemiluminescent detection” (Lumigen, Inc., priority 1993, dated 1996).

Assays:
horseradish peroxidase [1] = target: T1, horseradish peroxidase (Armoracia rusticana, UniProt P00433); experiment: Comparison of compounds 1a-e at pH 8.9, time course and total intensity of chemiluminescence; format: biochemical; conditions: 0.01 mM acridan, 0.1M phosphate pH 8.9, 6.2 mM H2O2, 2.25 mM p-iodophenol, 1×10^-13 mol HRP
T1 sequence (P00433 31-338 limits assumed): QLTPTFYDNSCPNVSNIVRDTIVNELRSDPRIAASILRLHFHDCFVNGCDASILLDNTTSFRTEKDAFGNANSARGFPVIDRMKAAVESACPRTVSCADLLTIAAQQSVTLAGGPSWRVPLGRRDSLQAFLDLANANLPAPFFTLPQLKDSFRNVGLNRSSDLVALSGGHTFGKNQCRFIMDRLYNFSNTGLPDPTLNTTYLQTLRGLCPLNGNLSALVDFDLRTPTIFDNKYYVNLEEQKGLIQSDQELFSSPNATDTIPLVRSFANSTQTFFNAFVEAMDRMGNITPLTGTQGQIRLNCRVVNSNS
Protocol: (§1) The experiments in the following examples were performed using a Turner Designs TD-20e luminometer fitted with neutral density filter for light attenuation. Data collection, analysis and display were software controlled. Constant temperature was maintained by means of an external circulating water bath connected to the luminometer.
A 200 μL volume of a formulation containing 0.01 mM acridan compound 1a-e in 0.1M phosphate buffer, pH 8.9, […] (6.2 mM) H2 O2, 2.25 mM p-iodophenol, 0.5% (w/w) Tween 20 and 1 mM EDTA was reacted with 1×10^-13 mol of horseradish peroxidase. […] Compared below are the peak light intensity (Imax) in relative light units (RLU), the time to maximum light intensity (tmax) and total light output.

horseradish peroxidase [2] = target: T1, horseradish peroxidase; experiment: Sensitivity of detection of horseradish peroxidase using 1b and sodium perborate; format: biochemical; conditions: 1b 46 μmol/L, 0.2 mmol/L perborate, 37° C.; for linear assay range for HRP: pH 8.0 tris
Protocol: as §1
A matrix optimization experiment was done using 1b (0.1 mM-0.05 mM), sodium perborate (3 mM-0.2 mM) and HRP (1.4×10^-18 mol-1.4×10^-14 mol) at 37° C. The final assay reagent consists of 2.25×10^-3 M p-iodophenol, 0.5% Tween 20 and 1×10^-3 M EDTA in pH 8.0, 0.1M tris buffer. The best compromise between sensitivity and dynamic range was obtained using 1b (46 μmol/L) and 0.2 mmol/L perborate. These conditions gave a linear assay for HRP in the range of […] to 1.4×10^-14 mol (detection limit S/B=1.4 after 5 min with 1.4×10^-18 mol) or in the range of 1.4×10^-18 to 1.4×10^-15 mol (detection limit S/B-1.5 after 15 min with 1.4×10^-18 mol).
FIGS. 3A to 3C show the correlation of corrected signal to background vs. amount of HRP using solutions containing 0.05 mM 1b, 0.5% Tween 20, 1×10^-3 M EDTA in pH 8.0, 0.1M tris buffer.

`CN1c2ccccc2C(C(=O)Oc2ccc(O)cc2)c2ccccc21` [Compound 1b, 4'-Hydroxyphenyl 10-methylacridan-9-carboxylate] was tested, and the “I max (RLU), peak light intensity” value (horseradish peroxidase [1]; 0.5% Tween 20, 1 mM EDTA) was 2047 RLU, the “I total (RLU), total light output” value (horseradish peroxidase [1]) was 2 × 10^6 RLU and the “t max (min), time to maximum light intensity” value (horseradish peroxidase [1]) was 4.2 min. The “linear assay range for HRP” value (horseradish peroxidase [2]; after 5 min) was 4e-19 to 1.4e-14 mol, the “linear assay range for HRP” value (horseradish peroxidase [2]; after 15 min) was 1.4e-18 to 1.4e-15 mol and the “detection limit S/B” value (horseradish peroxidase [2]; after 5 min with 1.4×10^-18 mol HRP) was 1.4.
